We go through four compounds from patent US20250049693A1, “METHOD FOR AMPLIFYING EXPRESSION OF TRANSPORTER-RELATED GENE IN EPIDERMAL CELLS” (J-Network, Inc., priority 2023, published 2025).

For series [1], the system named is Normal human epidermal keratinocytes (NHEKs). As to the kind of experiment: Evaluation of cellular uptake action of cystine: hydroquinone cytotoxicity, neutral red assay. Type of series: cell-based. The following applies: then 400 μM hydroquinone 24 hours. The procedure: From the test results of (1) and (2) described above, it was confirmed that the expression of the SLC7A11 genes was enhanced by the application of the diacylglycerol PEG adduct to epidermal cells, and thus the production of the protein, which is the xCT transporter encoded thereby, was enhanced. Therefore, the cellular uptake action of cystine was actually evaluated. This evaluation was performed by quantifying the cytotoxicity of hydroquinone (HQ) when a diacylglycerol PEG adduct, cystine, and hydroquinone were added to epidermal cells.
Normal human epidermal keratinocytes (NHEKs) were seeded on a 96-well plate at a cell density of 2.0×10^4 cells/well using HuMedia-KG2 medium and cultured under the conditions of 37° C. and 5% CO2 for 24 hours.
Thereafter, using HuMedia-KB2 medium, a sample to which 50 μM of PEG-23 glycerol distearate (GDS23) was added and a sample to which GDS23 was not added were respectively cultured under the conditions of 37° C. and 5% CO2 for 24 hours.
Subsequently, the samples were washed with PBS (−), and the GDS23-added samples and the GDS23 non-added samples were respectively cultured in the following three media for 30 hours. The cysteine added to the medium is oxidized in the medium or between cells to be converted into cystine, which is a dimer, and is incorporated into the cells as cystine. • HuMedia-KB2 medium containing 0 μM of cysteine (Cys) • HuMedia-KB2 medium containing 10 μM of cysteine (Cys) • HuMedia-KB2 medium containing 50 μM of cysteine (Cys)
Further, the cells were washed with PBS (−) and cultured in HuMedia-KB2 medium containing 400 μM of hydroquinone (HQ) for 24 hours.
The control (no addition of any of GDS23, Cys, and HQ) was cultured only in HuMedia-KB2 medium.
Thereafter, the cell viability was measured by the neutral red assay. The cell viability was calculated for each of the GDS23-added samples and the GDS23 non-added samples, taking the cell viability of the control as 100%.

The subject of the next series is SVCT2 protein. As to the kind of experiment: Test for enhanced production of SVCT2 proteins (Western blotting). The series is classed as cell-based, human. The following applies: NHEKs, 50 μM, 24 hours. The procedure:
A test for confirming the enhanced production of proteins encoded by the SVCT2 genes was performed using Western blotting.
Normal human epidermal keratinocytes (NHEKs) were seeded on a 96-well plate at a cell density of 1.0×10^5 cells/well using HuMedia-KG2 medium and cultured under the conditions of 37° C. and 5% CO2 for 24 hours.
Thereafter, 50 μM of PEG-23 glycerol distearate (GDS23) was added thereto using HuMedia-KB2 medium, and the cells were cultured under the conditions of 37° C. and 5% CO2 for 24 hours. A control (no addition) was cultured only in HuMedia-KB2 medium.
After culturing, Western blotting was applied. First, proteins were extracted from the cells using […] containing 10% mercaptoethanol. The protein extract solution was subjected to electrophoresis using a polyacrylamide gel, and the proteins were transferred to a membrane by a semi-dry method. The amount of the SVCT2 protein was corrected with the amount of GAPDH, which is an internal standard in the same sample, and the correction value of the sample was calculated with the correction value of the control set to 1.
In general terms: A western blot detects proteins with antibodies after separation by electrophoresis.

The test system of the next series is ABCC1 gene. As to the kind of experiment: Amplification of mRNA expression of ABCC1 gene (quantitative real-time PCR). The series is classed as cell-based, human. The following applies: NHEKs, corrected with GAPDH, control = 1. On the procedure: (§1) A test for confirming the amplification of mRNA expression of each transporter-related gene in epidermal cell was performed.
(§2) Normal human epidermal keratinocytes (NHEKs) were seeded on a 96-well plate at a cell density of 2.0×10^4cells/well using HuMedia-KG2 medium (manufactured by Kurabo Industries Ltd.), and cultured under the conditions of 37° C. and 5% CO2 for 24 hours.
(§3) Thereafter, a diacylglycerol PEG adduct was added thereto using HuMedia-KB2 medium (manufactured by Kurabo Industries Ltd.), and each was cultured under the conditions of 37° C. and 5% CO2 for a predetermined time. Table 1 represents the target gene, the types of diacylglycerol PEG adduct added, the adding amount, and the culture time. A control (no addition) was also cultured under the same conditions.
(§4) After the cells were cultured for each predetermined time, RNA was extracted from the cells of each sample and control. The extracted RNA was reverse-transcribed to prepare cDNA, and the mRNA of the target gene was quantified by quantitative real-time PCR expression analysis. […]
(§5) In the analysis, the mRNA expression level of each target gene was corrected with the value of the expression level of GAPDH, which is an internal standard in the same sample, and the correction value of the sample was calculated as a relative expression level when the correction value of the control was set to 1.
(In general: Real-time PCR tracks product formation cycle by cycle.)

In series [2] the test system is Normal human epidermal keratinocytes (NHEKs). As to the kind of experiment: Evaluation of cellular uptake action of vitamin C: hydroquinone cytotoxicity, neutral red assay. The settings on record: then 400 μM hydroquinone 24 hours. Type of series: cell-based.
Procedure: This evaluation was performed by quantifying the cytotoxicity of hydroquinone (HQ) when a diacylglycerol PEG adduct, vitamin C, and hydroquinone were added to epidermal cells.
Normal human epidermal keratinocytes (NHEKs) were seeded on a 96-well plate at a cell density of 2.0×10^4 cells/well using HuMedia-KG2 medium and cultured under the conditions of 37° C. and 5% CO: for 24 hours.
Thereafter, using HuMedia-KB2 medium, a sample to which 50 μM of PEG-23 glycerol distearate (GDS23) was added and a sample to which GDS23 was not added were respectively cultured under the conditions of 37° C. and 5% CO: for 24 hours.
Subsequently, the samples were washed with PBS (−), and the GDS23-added samples and the GDS23 non-added samples were respectively cultured in the following six media for 24 hours. • HuMedia-KB2 medium containing 0 μM of ascorbic acid (AsA) • HuMedia-KB2 medium containing 1 μM of ascorbic acid (AsA) • HuMedia-KB2 medium containing 5 μM of ascorbic acid (AsA) • HuMedia-KB2 medium containing 10 μM of ascorbic acid (AsA) • HuMedia-KB2 medium containing 50 μM of ascorbic acid (AsA) • HuMedia-KB2 medium containing 100 μM of ascorbic acid (AsA)
The control (no addition of any of GDS23, AsA, and HQ) was cultured only in HuMedia-KB2 medium.
Another series concerns GSR gene. As to the kind of experiment: Amplification of mRNA expression of GSR gene (quantitative real-time PCR). The settings on record: NHEKs, corrected with GAPDH, control = 1. The series is classed as cell-based, human. On the procedure: as §1, §2, §3, §4, §5
The next series deals with SVCT2 gene. As to the kind of experiment: Amplification of mRNA expression of SVCT2 gene (quantitative real-time PCR). The series is classed as cell-based, human. The settings on record: NHEKs; 100 μM; culture 30 hr; corrected with GAPDH, control = 1. The procedure: as §1, §2, §3, §4, §5
A further series relates to SLC7A11 gene. As to the kind of experiment: Amplification of mRNA expression of SLC7A11 gene (quantitative real-time PCR). The series is classed as cell-based, human. The settings on record: NHEKs; 100 μM; culture 24 hr; corrected with GAPDH, control = 1. The procedure:
as §1, §2, §3, §4, §5

Consider `N[C@@H](CS)C(=O)O` [cysteine, reference compound], for which, in series [1] (GDS23 non-added samples, cysteine 10 μM and 50 μM, 30 hours, versus cysteine non-added sample), the “effect of cysteine (cystine) on the cytotoxicity caused by hydroquinone (cell viability)” value is given as “almost no effect”.

Turning to PEG-23 glycerol distearate [GDS23], in the series on SVCT2 protein (FIG. 11), the “SVCT2 protein band (Western blot image)” value is on record as “increase”. The “amount of the SVCT2 protein” value with SVCT2 protein (Western blot, corrected with GAPDH, control = 1) is given as “about 1.4 times that in the control sample”. Besides, the “relative expression level of ABCC1 gene” value in the series with ABCC1 gene (50 μM, culture 24 hr) is listed as “about 2.1 times that of the control”. Moreover, the “cytotoxicity by hydroquinone (cell viability), GDS23-added versus GDS23 non-added samples” value is listed as “significantly reduced” in series [2] (50 μM GDS23 24 hours, ascorbic acid 0-100 μM 24 hours) and “significantly reduced” in series [1] (50 μM GDS23 24 hours, cysteine 0-50 μM 30 hours). The “cell viability of ascorbic acid-added samples versus ascorbic acid non-added sample among GDS23-added samples” value in series [2] (50 μM GDS23 24 hours, ascorbic acid 1-100 μM 24 hours) is on record as “higher”. Besides, the “cell viability of cysteine-added samples versus cysteine non-added sample among GDS23-added samples” value in series [1] (50 μM GDS23 24 hours, cysteine 10 or 50 μM 30 hours) is “higher”. In the series with GSR gene (50 μM, culture 24 hr), the “relative expression level of GSR gene” value is given as “about 1.8 times that of the control”.

As to `O=C1O[C@H]([C@@H](O)CO)C(O)=C1O` [ascorbic acid, reference compound], the “effect of ascorbic acid on the cytotoxicity caused by hydroquinone (cell viability)” value in series [2] (GDS23 non-added samples, ascorbic acid 5 to 100 μM, 24 hours, versus ascorbic acid non-added sample) is “almost no effect”.

Consider PEG-12 glycerol dimyristate [GDM12], for which, in the series with SVCT2 gene, the “relative expression level of SVCT2 gene” value is on record as “about 1.4 times that of the control”. The “relative expression level of SLC7A11 gene” value in the series with SLC7A11 gene was “about 1.4 times that of the control”. The “relative expression level of ABCC1 gene” value in the series on ABCC1 gene (100 μM, culture 30 hr) is given as “about 1.3 times that of the control”. Also, the “relative expression level of GSR gene” value in the series with GSR gene (100 μM, culture 30 hr) is on record as “about 1.5 times that of the control”.
